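Method: 48-hour compound exposure of cells in 96-well plates, five concentrations, linear interpolation of endpoints. GI50 marks 50% less growth. At the TGI there is no net growth.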
Columns and labels:
Experiment in all cases: inhibition of tumour cell growth, NCI panel, 48 h
[1] = system: A498 renal
[2] = system: RXF 393 renal
[3] = system: 786-0 renal
[4] = system: SK-OV-3 ovarian
[5] = system: HT29 colon
[6] = system: SK-MEL-2 melanoma
[7] = system: OVCAR-4 ovarian
[8] = system: MALME-3M melanoma
[9] = system: DMS 114 small cell lung
[10] = system: SF-268 CNS
[11] = system: HOP-18 NSCLC
[12] = system: SF-539 CNS
[13] = system: SF-295 CNS
[14] = system: CCRF-CEM leukemia
[15] = system: K-562 leukemia
[16] = system: HCT-116 colon
[17] = system: UO-31 renal
[18] = system: SNB-19 CNS
[19] = system: UACC-62 melanoma
[20] = system: OVCAR-8 ovarian
[21] = system: RPMI-8226 leukemia
[22] = system: KM20L2 colon
[23] = system: CAKI-1 renal
[24] = system: HL-60(TB) leukemia
[25] = system: NCI-H23 lung
[26] = system: MOLT-4 leukemia
[27] = system: A549 NSCLC
[28] = system: HCT-15 colon
[29] = system: OVCAR-3 ovarian
[30] = system: TK-10 renal
[31] = system: SN12C renal
[32] = system: SK-MEL-28 melanoma
[33] = system: EKVX NSCLC
[34] = system: IGROV1 ovarian
[35] = system: SW-620 colon
[36] = system: HOP-92 NSCLC
[37] = system: KM12 colon
[38] = system: OVCAR-5 ovarian
[39] = system: COLO 205 colon
[40] = system: NCI-H522 lung
[41] = system: SK-MEL-5 melanoma
[42] = system: M14 melanoma
[43] = system: LXFL 529 NSCLC
[44] = system: U251 CNS
[45] = system: SR leukemia
[46] = system: MDA-MB-231 breast
[47] = system: ACHN renal
[48] = system: SNB-75 CNS
[49] = system: BT-549 breast
[50] = system: NCI-H226 lung
[51] = system: MCF7 breast
[52] = system: LOX IMVI melanoma
[53] = system: MDA-MB-435
[54] = system: MDA-N
[55] = system: HOP-62 NSCLC
[56] = system: NCI-H460 lung
[57] = system: HS 578T breast
[58] = system: HCC-2998 colon
[59] = system: UACC-257 melanoma
[60] = system: PC-3 prostate
[61] = system: T-47D breast
[62] = system: NCI/ADR-RES ovarian
[63] = system: DU-145 prostate
[64] = system: SNB-78 CNS
[65] = system: M19-MEL melanoma

SMILES: Cc1c(/C=N/NS(=O)(=O)c2ccccc2)no[n+]1[O-]
- TGI [1]: > 100 µM
- TGI [2]: > 100 µM
- TGI [3]: > 100 µM
- TGI [4]: > 100 µM
- TGI [5]: > 100 µM
- TGI [6]: > 100 µM
- TGI [7]: > 100 µM
- TGI [8]: > 100 µM
- TGI [9]: > 100 µM
- TGI [10]: > 100 µM
- TGI [11]: > 100 µM
- TGI [12]: > 100 µM
- TGI [13]: > 100 µM
- TGI [14]: > 100 µM
- TGI [15]: > 100 µM
- TGI [16]: > 100 µM
- TGI [17]: 49.6 µM
- TGI [18]: > 100 µM
- TGI [19]: > 100 µM
- TGI [20]: > 100 µM
- TGI [21]: > 100 µM
- TGI [22]: > 100 µM
- TGI [23]: > 100 µM
- TGI [24]: > 100 µM
- TGI [25]: > 100 µM
- TGI [26]: > 100 µM
- TGI [27]: > 100 µM
- TGI [28]: > 100 µM
- TGI [29]: > 100 µM
- TGI [30]: > 100 µM
- TGI [31]: > 100 µM
- TGI [32]: > 100 µM
- TGI [33]: > 100 µM
- TGI [34]: > 100 µM
- TGI [35]: > 100 µM
- TGI [36]: > 100 µM
- TGI [37]: > 100 µM
- TGI [38]: > 100 µM
- TGI [39]: > 100 µM
- TGI [40]: > 100 µM
- TGI [41]: > 100 µM
- TGI [42]: > 100 µM
- TGI [43]: > 100 µM
- TGI [44]: > 100 µM
- TGI [45]: > 100 µM

SMILES: CC1=C(/C=C/C(C)=C\C=C\C(C)=C\C(=O)Nc2ccc3c(c2)OCO3)C(C)(C)CCC1
- GI50 [1]: > 100 µM
- TGI [1]: > 100 µM
- GI50 [46]: > 100 µM
- TGI [46]: > 100 µM
- GI50 [2]: 24 µM
- TGI [2]: > 100 µM
- GI50 [3]: 40.2 µM
- TGI [3]: > 100 µM
- GI50 [4]: > 100 µM
- TGI [4]: > 100 µM
- GI50 [5]: 11.9 µM
- TGI [5]: > 100 µM
- GI50 [6]: 61.6 µM
- TGI [6]: > 100 µM
- GI50 [7]: 21 µM
- TGI [7]: > 100 µM
- GI50 [8]: 7.93 µM
- TGI [8]: > 100 µM
- GI50 [47]: 89.1 µM
- TGI [47]: > 100 µM
- GI50 [10]: > 100 µM
- TGI [10]: > 100 µM
- GI50 [12]: 51.3 µM
- TGI [12]: > 100 µM
- GI50 [48]: 7.41 µM
- TGI [48]: > 100 µM
- GI50 [49]: 98.5 µM
- TGI [49]: > 100 µM
- GI50 [50]: > 100 µM
- TGI [50]: > 100 µM
- GI50 [13]: 31 µM
- TGI [13]: > 100 µM
- GI50 [14]: 22.6 µM
- TGI [14]: > 100 µM
- GI50 [15]: 7.56 µM
- TGI [15]: > 100 µM
- GI50 [16]: 29.5 µM
- TGI [16]: > 100 µM
- GI50 [17]: > 100 µM
- TGI [17]: > 100 µM
- GI50 [18]: > 100 µM
- TGI [18]: > 100 µM
- GI50 [19]: > 100 µM
- TGI [19]: > 100 µM
- GI50 [20]: 93.1 µM
- TGI [20]: > 100 µM
- GI50 [21]: 2930 nM
- TGI [21]: > 100 µM
- GI50 [51]: 11.2 µM
- TGI [51]: > 100 µM
- GI50 [23]: > 100 µM
- TGI [23]: > 100 µM
- GI50 [24]: 1650 nM
- TGI [24]: 18 µM
- GI50 [25]: 17.7 µM
- TGI [25]: > 100 µM
- GI50 [52]: 16.8 µM
- TGI [52]: > 100 µM
- GI50 [53]: 16.7 µM
- TGI [53]: > 100 µM
- GI50 [26]: 16.1 µM
- TGI [26]: > 100 µM
- GI50 [54]: 55.7 µM
- TGI [54]: > 100 µM
- GI50 [27]: 84.8 µM
- TGI [27]: > 100 µM
- GI50 [55]: > 100 µM
- TGI [55]: > 100 µM
- GI50 [28]: 36.4 µM
- TGI [28]: > 100 µM
- GI50 [29]: > 100 µM
- TGI [29]: > 100 µM
- GI50 [30]: > 100 µM
- TGI [30]: > 100 µM
- GI50 [31]: > 100 µM
- TGI [31]: > 100 µM
- GI50 [32]: > 100 µM
- TGI [32]: > 100 µM
- GI50 [33]: 62.3 µM
- TGI [33]: > 100 µM
- GI50 [34]: > 100 µM
- TGI [34]: > 100 µM
- GI50 [56]: 50.5 µM
- TGI [56]: > 100 µM
- GI50 [35]: > 100 µM
- TGI [35]: > 100 µM
- GI50 [57]: > 100 µM
- TGI [57]: > 100 µM
- GI50 [36]: 35.8 µM
- TGI [36]: > 100 µM
- GI50 [58]: 3.97 µM
- TGI [58]: 36.5 µM
- GI50 [37]: 39.2 µM
- TGI [37]: > 100 µM
- GI50 [38]: > 100 µM
- TGI [38]: > 100 µM
- GI50 [59]: 29.4 µM
- TGI [59]: > 100 µM
- GI50 [60]: 41.2 µM
- TGI [60]: > 100 µM
- GI50 [39]: 37.8 µM
- TGI [39]: > 100 µM
- GI50 [40]: 14.1 µM
- TGI [40]: > 100 µM
- GI50 [61]: 25.4 µM
- TGI [61]: > 100 µM
- GI50 [41]: 16.2 µM
- TGI [41]: 68.1 µM
- GI50 [42]: > 100 µM
- TGI [42]: > 100 µM
- GI50 [62]: 73 µM
- TGI [62]: > 100 µM
- GI50 [44]: 77.5 µM
- TGI [44]: > 100 µM
- GI50 [63]: > 100 µM
- TGI [63]: > 100 µM
- GI50 [45]: 11.3 µM
- TGI [45]: 47.7 µM

SMILES: CCO[C@@H]1OC(=O)[C@](C)(C(C)=O)[C@@H]1C
- TGI [1]: > 100 µM
- TGI [2]: > 100 µM
- TGI [4]: > 100 µM
- TGI [5]: > 100 µM
- TGI [6]: > 100 µM
- TGI [7]: > 100 µM
- TGI [47]: > 100 µM
- TGI [64]: > 100 µM
- TGI [9]: > 100 µM
- TGI [10]: 67.8 µM
- TGI [12]: > 100 µM
- TGI [48]: 98.4 µM
- TGI [13]: > 100 µM
- TGI [14]: 89.5 µM
- TGI [15]: > 100 µM
- TGI [17]: > 100 µM
- TGI [18]: > 100 µM
- TGI [19]: > 100 µM
- TGI [21]: > 100 µM
- TGI [22]: > 100 µM
- TGI [24]: 79.6 µM
- TGI [25]: 60.1 µM
- TGI [26]: > 100 µM
- TGI [55]: > 100 µM
- TGI [65]: > 100 µM
- TGI [29]: > 100 µM
- TGI [32]: > 100 µM
- TGI [34]: > 100 µM
- TGI [56]: > 100 µM
- TGI [36]: > 100 µM
- TGI [37]: > 100 µM
- TGI [38]: > 100 µM
- TGI [59]: > 100 µM
- TGI [39]: > 100 µM
- TGI [40]: > 100 µM
- TGI [42]: > 100 µM
- TGI [43]: > 100 µM
- TGI [44]: > 100 µM
- TGI [45]: > 100 µM

Reference: PubChem BioAssay (NCI)
